In ChEMBL document CHEMBL6074686 (Eur J Med Chem, 2025):
pIC50: −log10 of the molar value. Activity calls are given as the source filed them. The calls are words filed in the database; no cut-off is given here.

Columns and labels:
MCF7 [1] = assay: Inhibition of cell migration in human MCF7 cells assessed as wound closure ratio at 10 nM incubated for 24 hrs by wound healing assay (reference value: 100%); assay type: functional; set-up: scale not given: the % may be the effect or the level left
[2] = Toxicity in female BALB/c nude mouse xenografted with human SK-OV-3 cells assessed as pathological changes in liver at 5 to 10 mg/kg, […] via tail vein once every 2 to 3 days by H and E staining based analysis; assay type: organism-based; conditions: in vivo, dose lower 5 mg/kg, time lower 2 day, dose upper 10 mg/kg, time upper 3 day
SK-OV-3 [3] = assay: Induction of cell cycle arrest in human SK-OV-3 cells assessed as downregulation of Cdc-2 expression at 100 nM incubated for 24 hrs by Western blotting analysis; assay type: functional, cell-based
SK-OV-3 [4] = assay: Inhibition of cell migration in human SK-OV-3 cells incubated for 24 hrs by Transwell assay; assay type: functional, cell-based; conditions: dose 10-20 nM
SK-OV-3 [5] = assay: Antitumor activity against human SK-OV-3 cells xenografted in female BALB/c nude mouse assessed as tumor growth inhibition at 10 mg/kg, […] via tail vein once every 2 to 3 days; assay type: functional; conditions: time 2-3 day, read-out: TGI
[6] = Toxicity in female BALB/c nude mouse xenografted with human SK-OV-3 cells assessed as pathological changes in spleen at 5 to 10 mg/kg, […] via tail vein once every 2 to 3 days by H and E staining based analysis; assay type: organism-based; conditions: in vivo, dose lower 5 mg/kg, time lower 2 day, dose upper 10 mg/kg, time upper 3 day
MCF7 [7] = assay: Inhibition of cell migration in human MCF7 cells assessed as wound closure ratio at 2.5 nM incubated for 24 hrs by wound healing assay (reference value: 100%); assay type: functional; set-up: scale not given: the % may be the effect or the level left
MCF7 [8] = assay: Inhibition of cell migration in human MCF7 cells assessed as ratio of migrated cells at 50 nM incubated for 24 hrs by crystal violet staining based inverted microscopic analysis (reference value: 100%); assay type: functional; set-up: scale not given: the % may be the effect or the level left
SK-OV-3 [9] = assay: Inhibition of cell migration in human SK-OV-3 cells assessed as reduction in wound closure at 25 nM incubated for 24 hrs by wound healing assay (reference value: 21.8 +/- 7.6%); assay type: functional; conditions: SK-OV-3, 24 h, values are per cent of control
SK-OV-3 [10] = assay: Induction of cell cycle arrest in human SK-OV-3 cells assessed as increase in G2/M phase cells at 10 nM incubated for 24 hrs PI staining based flow cytometric analysis (reference value: 24.6 +/- 2.0%); assay type: functional
A549 [11] = assay: Antitumor activity against human A549 cells assessed as reduction in cell viability incubated for 72 hrs by CCK8 assay; assay type: functional, cell-based; conditions: A549, 72 h
MCF7 [12] = assay: Inhibition of cell migration in human MCF7 cells assessed as ratio of migrated cells at 25 nM incubated for 24 hrs by crystal violet staining based inverted microscopic analysis (reference value: 100%); assay type: functional; set-up: scale not given: the % may be the effect or the level left
MCF7 [13] = assay: Induction of apoptosis in human MCF7 cells assessed as upregulation of cleaved-caspase-3 expression incubated for 24 hrs by Western blotting analysis; assay type: functional, cell-based
SK-OV-3 [14] = assay: Induction of cell cycle arrest in human SK-OV-3 cells assessed as decrease in Cyclin-B1 expression at 100 nM incubated for 24 hrs by Western blotting analysis; assay type: functional, cell-based
SK-OV-3 [15] = assay: Inhibition of cell migration in human SK-OV-3 cells assessed as decrease in cell density incubated for 24 hrs by wound healing assay; assay type: functional, cell-based; conditions: dose 3.125-50 nM
MCF7 [16] = assay: Inhibition of colony formation in human MCF7 cells incubated for 72 hrs by crystal violet staining based assay; assay type: functional, cell-based; conditions: dose 3.125-50 nM
MCF7 [17] = assay: Inhibition of cell migration in human MCF7 cells assessed as wound closure at 5 nM incubated for 24 hrs by wound healing assay (reference value: 44.5 +/- 8.8%); assay type: functional; set-up: scale not given: the % may be the effect or the level left
SK-OV-3 [18] = assay: Induction of apoptosis in human SK-OV-3 cells assessed as downregulation of cleaved-PARP expression at 100 nM incubated for 24 hrs by Western blotting analysis; assay type: functional, cell-based
MCF7 [19] = assay: Inhibition of cell migration in human MCF7 cells assessed as ratio of migrated cells at 6.25 nM incubated for 24 hrs by crystal violet staining based inverted microscopic analysis (reference value: 100%); assay type: functional; set-up: scale not given: the % may be the effect or the level left
MCF7 [20] = assay: Inhibition of colony formation in human MCF7 cells at 3.125 to 50 nM by crystal violet staining based assay; assay type: functional, cell-based; conditions: dose 3.125-50 nM, time 0-72 hrs
SK-OV-3 [21] = assay: Inhibition of cell migration in human SK-OV-3 cells assessed as reduction in wound closure at 12.5 nM incubated for 24 hrs by wound healing assay (reference value: 21.8 +/- 7.6%); assay type: functional; conditions: SK-OV-3, 24 h, values are per cent of control
SK-OV-3 [22] = assay: Antitumor activity against human SK-OV-3 cells xenografted in female BALB/c nude mouse assessed as tumor growth inhibition at 5 mg/kg, […] via tail vein once every 2 to 3 days; assay type: functional; conditions: time 2-3 day, read-out: TGI
SK-OV-3 [23] = assay: Inhibition of cell migration in human SK-OV-3 cells assessed as area of migrated cells at 5 nM incubated for 24 hrs by crystal violet staining based inverted microscopic analysis (reference value: 30.1 +/- 1.3 mm^3); assay type: functional
SK-OV-3 [24] = assay: Induction of cell cycle arrest in human SK-OV-3 cells assessed as increase in G2/M phase cells incubated for 24 hrs PI staining based flow cytometric analysis; assay type: functional; conditions: dose 2.5-40 nM
[25] = Toxicity in female BALB/c nude mouse xenografted with human SK-OV-3 cells assessed as drug tolerance by measuring lethargy at 30 mg/kg, administered via tail vein for 5 days and measured daily; assay type: organism-based; conditions: in vivo, iv, 120 h, time 5 day
[26] = Toxicity in female BALB/c nude mouse xenografted with human SK-OV-3 cells assessed as pathological changes in kidney at 5 to 10 mg/kg, […] via tail vein once every 2 to 3 days by H and E staining based analysis; assay type: organism-based; conditions: in vivo, dose lower 5 mg/kg, time lower 2 day, dose upper 10 mg/kg, time upper 3 day
MCF7 [27] = assay: Induction of apoptosis in human MCF7 cells assessed as upregulation of cleaved-PARP expression at 25 to 50 nM incubated for 24 hrs by Western blotting analysis; assay type: functional, cell-based; conditions: dose 25-50 nM
SK-OV-3 [28] = assay: Induction of cell cycle arrest in human SK-OV-3 cells assessed as increase in G2/M phase cells at 20 nM incubated for 24 hrs PI staining based flow cytometric analysis (reference value: 24.6 +/- 2.0%); assay type: functional
A549 [29] = assay: Induction of cell cycle arrest in human A549 cells assessed as accumulation of cells at G2/M phase at 40 nM incubated for 24 hrs by PI staining based flow cytometric analysis relative to control; assay type: functional
SK-OV-3 [30] = assay: Inhibition of cell migration in human SK-OV-3 cells assessed as ratio of migrated cells at 10 nM incubated for 24 hrs by Transwell assay (reference value: 100 %); assay type: functional; set-up: scale not given: the % may be the effect or the level left
MCF7 [31] = assay: Inhibition of cell migration in human MCF7 cells assessed as area of migrated cells at 3.125 nM incubated for 24 hrs by crystal violet staining based inverted microscopic analysis (reference value: 18.5 +/- 0.3 mm^3); assay type: functional
MCF7 [32] = assay: Inhibition of cell migration in human MCF7 cells assessed as area of migrated cells at 12.5 nM incubated for 24 hrs by crystal violet staining based inverted microscopic analysis (reference value: 18.5 +/- 0.3 mm^3); assay type: functional
MCF7 [33] = assay: Inhibition of cell migration in human MCF7 cells assessed as increase in cell density at 20 nM incubated for 24 hrs by wound healing assay; assay type: functional, cell-based
MCF7 [34] = assay: Inhibition of cell migration in human MCF7 cells assessed as increase in cell density at 0 to 10 nM incubated for 24 hrs by wound healing assay; assay type: functional, cell-based; conditions: dose 0-10 nM

Q: Which results are given for CNc1nc(N2CCCc3cc(OC)ccc32)c2cc(F)ccc2n1?
A: Activity (MCF7 [1]): 104.4%; Activity [2]: Non-toxic; Activity (SK-OV-3 [3]): inactive; inhibition (SK-OV-3 [4]): Dose-dependent-effect; inhibition in vivo at 10 mg/kg (SK-OV-3 [5]): 46.2%; Activity [6]: Non-toxic; Activity (MCF7 [7]): 98.8%; Activity (MCF7 [8]): 11.7%; response, % of control at 0.025 µM (SK-OV-3 [9]): 11.2%; Activity (SK-OV-3 [10]): 64.5%; pIC50 (A549 [11]): 8.57; Activity (MCF7 [12]): 13.2%; Activity (MCF7 [13]): Dose-dependent-effect; Activity (SK-OV-3 [14]): Active; inhibition (SK-OV-3 [15]): Dose-dependent-effect; inhibition (MCF7 [16]): Dose-dependent-effect; Activity (MCF7 [17]): 43.3%; Activity (SK-OV-3 [18]): inactive; Activity (MCF7 [19]): 88.6%; inhibition (MCF7 [20]): Time-dependent-effect; response, % of control at 0.0125 µM (SK-OV-3 [21]): 14.3%; inhibition in vivo at 5 mg/kg (SK-OV-3 [22]): 34.1%; Activity (SK-OV-3 [23]): 14.7 mm3; Activity (SK-OV-3 [24]): Dose-dependent-effect; Activity [25]: Toxic; Activity [26]: Non-toxic; Activity (MCF7 [27]): Active; Activity (SK-OV-3 [28]): 90.6%; Activity (A549 [29]): 88.8%; Activity (SK-OV-3 [30]): 22.7%; Activity (MCF7 [31]): 17.5 mm3; Activity (MCF7 [32]): 11.2 mm3; inhibition (MCF7 [33]): Active; Increase In Cell Density Was Notably Slowed Down; inhibition (MCF7 [34]): Active
